According to US20200078468A1, “NEUROTENSIN RECEPTOR BINDING CONJUGATES AND FORMULATIONS THEREOF” (priority 2016, published 2020):

What follows are molecules tested against T1, human NTSR1 (Homo sapiens, UniProt P30989) (assay: radioligand-receptor binding assay, [125I] labeled neurotensin (Eurofins Panlabs)). Settings: [125I] neurotensin 0.02 nM, membranes from NTSR1 expressing HEK-293 cells, 45 minute incubation, Cheng and Prusoff; read-out: NTSR1 binding Ki.
T1 construct: host or cells: HEK-293 cells (membrane preparations)
T1 sequence (P30989 whole entry): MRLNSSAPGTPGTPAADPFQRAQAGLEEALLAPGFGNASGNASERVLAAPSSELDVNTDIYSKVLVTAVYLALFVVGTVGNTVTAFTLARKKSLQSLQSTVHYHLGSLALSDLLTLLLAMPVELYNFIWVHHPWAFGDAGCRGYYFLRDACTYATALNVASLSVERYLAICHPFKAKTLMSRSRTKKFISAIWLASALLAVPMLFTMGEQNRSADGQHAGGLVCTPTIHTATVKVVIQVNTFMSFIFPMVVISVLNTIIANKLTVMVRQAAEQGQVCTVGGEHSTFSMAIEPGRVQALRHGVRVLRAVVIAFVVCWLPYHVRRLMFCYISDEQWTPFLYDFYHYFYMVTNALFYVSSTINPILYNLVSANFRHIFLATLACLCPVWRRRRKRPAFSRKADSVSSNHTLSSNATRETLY
Method: Conjugates were assessed in an in vitro assay evaluating binding to NTSR1. A radioligand-receptor binding assay was conducted at Eurofins Panlabs (Taiwan) to determine the affinity of conjugates described herein to NTSR1. The assay measures binding of radiolabeled ligand, [^125I] labeled neurotensin, to human NTSR1 using membrane preparations from NTSR1 expressing HEK-293 cells (Human embryonic kidney cells 293). Membranes were incubated with radiolabeled neurotensin (0.02 nM) in the presence of conjugate/compound starting at a dose of either 100 nM, or 10 nM, using 3× serial dilutions to obtain a 6-pt curve. After a 45 minute incubation, membranes were filtered and washed 3× and counted to determine the remaining [^125I] neurotensin bound to the receptor. IC50 values were determined by a non-linear, least squares regression analysis using MathIQ™ (ID Business Solutions Ltd., UK). The Ki values were calculated using the equation of Cheng and Prusoff (Cheng and Prusoff, Biochem. Pharmacol. 22:3099-3108, 1973) using the observed IC50 of the tested conjugate/compound, the concentration of radioligand employed in the assay, and the historical values for the Kd of the ligand obtained at Eurofins.
CO[C@H]1C(=O)[C@]2(C)[C@@H](OC)C[C@H]3OC[C@@]3(OC(C)=O)[C@H]2[C@H](OC(=O)c2ccccc2)[C@]2(O)C[C@H](OC(=O)[C@H](OC(=O)OCCSSC(C)(C)[C@H](NC(C)=O)C(=O)N3CCC[C@H]3C(=O)N[C@@H](CCCNC(=N)N)C(=O)N[C@@H](CCCNC(=N)N)C(=O)N3CCC[C@H]3C(=O)N[C@@H](Cc3ccc(O)cc3)C(=O)N[C@H](C(=O)N[C@@H](CC(C)C)C(=O)O)C(C)(C)C)[C@@H](NC(=O)OC(C)(C)C)c3ccccc3)C(C)=C1C2(C)C [Compound 2] was tested, and the Ki was 3.97 nM.
Work on CO[C@H]1C(=O)[C@]2(C)[C@@H](OC)C[C@H]3OC[C@@]3(OC(C)=O)[C@H]2[C@H](OC(=O)c2ccccc2)[C@]2(O)C[C@H](OC(=O)[C@H](OC(=O)CNC(=O)[C@H](CC(C)C)NC(=O)[C@H](Cc3ccccc3)NC(=O)CNC(=O)CCCCCN3C(=O)CC(SC(C)(C)[C@H](NC(C)=O)C(=O)N4CCC[C@H]4C(=O)N[C@@H](CCCNC(=N)N)C(=O)N[C@@H](CCCNC(=N)N)C(=O)N4CCC[C@H]4C(=O)N[C@@H](Cc4ccc(O)cc4)C(=O)N[C@H](C(=O)N[C@@H](CC(C)C)C(=O)O)C(C)(C)C)C3=O)[C@@H](NC(=O)OC(C)(C)C)c3ccccc3)C(C)=C1C2(C)C (stereo partly shown) [Compound 3] yielded a Ki of 1.64 nM.
With CC[C@H](C)[C@H](NC(=O)[C@H](Cc1ccc(O)cc1)NC(=O)[C@@H]1CCCN1C(=O)[C@H](CCCNC(=N)N)NC(=O)[C@@H](CCCNC(=N)N)NC(=O)[C@@H]1CCCN1C(=O)[C@H](CCCCNC(=O)CCSC1CC(=O)N(CCCCCC(=O)NCC(=O)N[C@@H](Cc2ccccc2)C(=O)N[C@@H](CC(C)C)C(=O)NCC(=O)NCCCN2C(=O)CC(SCCC(=O)N(C)[C@@H](C)C(=O)O[C@H]3CC(=O)N(C)c4cc(cc(OC)c4Cl)C/C(C)=C/C=C/[C@@H](OC)[C@@]4(O)C[C@H](OC(=O)N4)[C@@H](C)[C@@H]4O[C@@]34C)C2=O)C1=O)NC(C)=O)C(=O)N[C@@H](C[Si](C)(C)C)C(=O)O (stereo partly shown) [Compound 38] the Ki was 0.087 nM.
COc1cc2cc(c1Cl)N(C)C(=O)C[C@H](OC(=O)[C@H](C)N(C)C(=O)CCSC1CC(=O)N(CCCNC(=O)CNC(=O)[C@H](CC(C)C)NC(=O)[C@H](Cc3ccccc3)NC(=O)CNC(=O)CCCCCN3C(=O)CC(SCCC(=O)NCCCC[C@H](NC(C)=O)C(=O)N4CCC[C@H]4C(=O)N[C@H](CCCNC(=N)N)C(=O)N[C@@H](CCCNC(=N)N)C(=O)N4CCC[C@H]4C(=O)N[C@@H](Cc4ccc(O)cc4)C(=O)N[C@H](C(=O)N[C@@H](C[Si](C)(C)C)C(=O)O)[C@@H](C)OC)C3=O)C1=O)[C@]1(C)O[C@H]1[C@H](C)[C@@H]1C[C@@](O)(NC(=O)O1)[C@H](OC)/C=C/C=C(\C)C2 (stereo partly shown) [Compound 39] gave a Ki of 0.8 nM.
With COc1cc2cc(c1Cl)N(C)C(=O)C[C@H](OC(=O)[C@H](C)N(C)C(=O)CCSC1CC(=O)N(CCCNC(=O)CNC(=O)[C@H](CC(C)C)NC(=O)[C@H](Cc3ccccc3)NC(=O)CNC(=O)CCCCCN3C(=O)CC(SCCC(=O)NCCCC[C@H](NC(C)=O)C(=O)N4CCC[C@H]4C(=O)N[C@H](CCCNC(=N)N)C(=O)N[C@@H](CCCNC(=N)N)C(=O)N4CCC[C@H]4C(=O)N[C@@H](Cc4ccc(O)cc4)C(=O)N[C@H](C(=O)N[C@@H](C[Si](C)(C)C)C(=O)O)C(C)(C)C)C3=O)C1=O)[C@]1(C)O[C@H]1[C@H](C)[C@@H]1C[C@@](O)(NC(=O)O1)[C@H](OC)/C=C/C=C(\C)C2 (stereo partly shown) [Compound 40] the Ki was 0.36 nM.
COc1cc2cc(c1Cl)N(C)C(=O)C[C@H](OC(=O)[C@H](C)N(C)C(=O)CCSC1CC(=O)N(CCCNC(=O)CNC(=O)[C@H](CC(C)C)NC(=O)[C@H](Cc3ccccc3)NC(=O)CNC(=O)CCCCCN3C(=O)CC(SCCC(=O)NCCCC[C@H](NC(C)=O)C(=O)N4CCC[C@H]4C(=O)N[C@H](CCCNC(=N)N)C(=O)N[C@@H](CCCNC(=N)N)C(=O)N4CCC[C@H]4C(=O)N[C@@H](Cc4ccc(O)cc4)C(=O)N[C@H](C(=O)N[C@@H](C[Si](C)(C)C)C(=O)O)C4CCCCC4)C3=O)C1=O)[C@]1(C)O[C@H]1[C@H](C)[C@@H]1C[C@@](O)(NC(=O)O1)[C@H](OC)/C=C/C=C(\C)C2 (stereo partly shown) [Compound 41] was tested, and the Ki was 0.89 nM.
Work on COc1cc2cc(c1Cl)N(C)C(=O)C[C@H](OC(=O)[C@H](C)N(C)C(=O)CCSC1CC(=O)N(CCCNC(=O)CNC(=O)[C@H](CC(C)C)NC(=O)[C@H](Cc3ccccc3)NC(=O)CNC(=O)CCCCCN3C(=O)CC(SCCC(=O)NCCCC[C@H](NC(C)=O)C(=O)N4CCC[C@H]4C(=O)N[C@H](CCCNC(=N)N)C(=O)N[C@@H](CCCNC(=N)N)C(=O)N4CCC[C@H]4C(=O)N[C@@H](Cc4ccc(O)cc4)C(=O)N[C@H](C(=O)N[C@@H](C[Si](C)(C)C)C(=O)O)C4CCCC4)C3=O)C1=O)[C@]1(C)O[C@H]1[C@H](C)[C@@H]1C[C@@](O)(NC(=O)O1)[C@H](OC)/C=C/C=C(\C)C2 (stereo partly shown) [Compound 42] yielded a Ki of 0.64 nM.
CC[C@H](C)[C@H](NC(=O)[C@H](Cc1c[nH]c2ccccc12)NC(=O)[C@@H]1CCCN1C(=O)[C@H](CCCNC(=N)N)NC(=O)[C@@H](CCCNC(=N)N)NC(=O)[C@@H]1CCCN1C(=O)[C@H](CCCCNC(=O)CCSC1CC(=O)N(CCCCCC(=O)NCC(=O)N[C@@H](Cc2ccccc2)C(=O)N[C@@H](CC(C)C)C(=O)NCC(=O)NCCCN2C(=O)CC(SCCC(=O)N(C)[C@@H](C)C(=O)O[C@H]3CC(=O)N(C)c4cc(cc(OC)c4Cl)C/C(C)=C/C=C/[C@@H](OC)[C@@]4(O)C[C@H](OC(=O)N4)[C@@H](C)[C@@H]4O[C@@]34C)C2=O)C1=O)NC(C)=O)C(=O)N[C@@H](C[Si](C)(C)C)C(=O)O (stereo partly shown) [Compound 43] gave a Ki of 1.31 nM.

These molecules were tested on SW48 (human colon cancer cells) (assay: inhibition of SW48 cell proliferation (CellTiter Glo)). Settings: NTSR1 scrambled compound; 72 hrs; read-out: SW-48 proliferation IC50.
Type: cell-based
Method: Conjugates were assessed in an in vitro assay evaluating inhibition of cell proliferation. SW48 (human colon cancer cells, ATCC®), cells were plated in 96 well, flat-bottomed plates (Costar) at a concentration of 5,000 cells/well. Cells were then incubated at 37° C. with 5% CO2 for 24 hrs. After 24 hrs, cells were treated with 0.01% DMSO or compound. Compounds were added at a starting dose of 10 μM and three fold serial dilutions were done for a total often points. Following compound addition, cells were incubated at 37° C. with 5% CO2 for 72 hrs. Proliferation was measured by CellTiter Glo reagent using the standard protocol (Promega) and a Glomax multi+detection system (Promega). Percent proliferation inhibition was calculated using the following formula: % inhibition=(control−treatment)/control*100. Control is defined as vehicle alone. IC50 curves were generated using the nonlinear regression analysis (four parameter) with GraphPad Prism 6.
Conjugates are assessed for receptor-dependent cytotoxicity by the difference between an NTSR1-targeting conjugate, and the corresponding conjugate with the same linker moiety and active agent where the NTSR1-targeting domain has been scrambled.
For CC[C@H](C)[C@@H]([C@@H](CC(=O)N1CCC[C@H]1[C@H](OC)[C@@H](C)C(=O)N[C@H](C)[C@@H](O)c1ccccc1)OC)N(C)C(=O)[C@@H](NC(=O)[C@H](C(C)C)N(C)C(=O)OCc1ccc(NC(=O)[C@H](CCCNC(N)=O)NC(=O)[C@@H](NC(=O)CCCCCN2C(=O)CC(SCCC(=O)NCCOCCOCCOCCOCCC(=O)NCCCC[C@H](NC(C)=O)C(=O)N3CCC[C@H]3C(=O)N[C@@H](CC(C)C)C(=O)N3CCC[C@H]3C(=O)N(C)[C@@H](CCCNC(=N)N)C(=O)N[C@H](C(=O)N[C@@H](CCCNC(=N)N)C(=O)N[C@@H](Cc3ccc(O)cc3)C(=O)O)C(C)(C)C)C2=O)C(C)C)cc1)C(C)C (stereo partly shown) [Compound 95], the IC50 was 60.1 nM.
For CC[C@H](C)[C@@H]([C@@H](CC(=O)N1CCC[C@H]1[C@H](OC)[C@@H](C)C(=O)N[C@H](C)[C@@H](O)c1ccccc1)OC)N(C)C(=O)[C@@H](NC(=O)[C@H](C(C)C)N(C)C(=O)OCc1ccc(NC(=O)[C@H](CCCNC(N)=O)CC(=O)[C@@H](NC(=O)CCCCCN2C(=O)CC(SCCC(=O)NCCOCCOCCOCCOCCOCCOCCOCCOCCC(=O)NCCCC[C@H](NC(C)=O)C(=O)N3CCC[C@H]3C(=O)N[C@@H](CC(C)C)C(=O)N3CCC[C@H]3C(=O)N(C)[C@@H](CCCNC(=N)N)C(=O)N[C@H](C(=O)N[C@@H](CCCNC(=N)N)C(=O)N[C@@H](Cc3ccc(O)cc3)C(=O)O)C(C)(C)C)C2=O)C(C)C)cc1)C(C)C (stereo partly shown) [Compound 96], the IC50 was 76.7 nM.
CCc1c2c(nc3ccc(O)cc13)-c1cc3c(c(=O)n1C2)COC(=O)[C@@]3(CC)OC(=O)OCCSSC(C)(C)[C@H](NC(C)=O)C(=O)N1CCC[C@H]1C(=O)N[C@@H](CC(C)C)C(=O)N1CCC[C@H]1C(=O)N[C@@H](CCCNC(=N)N)C(=O)N[C@H](C(=O)N[C@@H](CCCNC(=N)N)C(=O)N[C@@H](Cc1ccc(O)cc1)C(=O)O)C(C)(C)C [Compound 97] gave an IC50 of 122 nM.
Work on CCc1c2c(nc3ccc(O)cc13)-c1cc3c(c(=O)n1C2)COC(=O)[C@@]3(CC)OC(=O)OCc1ccc(NC(=O)[C@H](CCCNC(N)=O)NC(=O)[C@@H](NC(=O)CCCCCN2C(=O)CC(SC(C)(C)[C@H](NC(C)=O)C(=O)N3CCC[C@H]3C(=O)N[C@@H](CC(C)C)C(=O)N3CCC[C@H]3C(=O)N[C@@H](CCCNC(=N)N)C(=O)N[C@H](C(=O)N[C@@H](CCCNC(=N)N)C(=O)N[C@@H](Cc3ccc(O)cc3)C(=O)O)C(C)(C)C)C2=O)C(C)C)cc1 (stereo partly shown) [Compound 98] yielded an IC50 of 61 nM.
CCc1c2c(nc3ccc(O)cc13)-c1cc3c(c(=O)n1C2)COC(=O)[C@@]3(CC)OC(=O)CNC(=O)CNC(=O)[C@H](CC(C)C)NC(=O)[C@H](Cc1ccccc1)NC(=O)CNC(=O)CCCCCN1C(=O)CC(SC(C)(C)[C@H](NC(C)=O)C(=O)N2CCC[C@H]2C(=O)N[C@@H](CC(C)C)C(=O)N2CCC[C@H]2C(=O)N[C@@H](CCCNC(=N)N)C(=O)N[C@H](C(=O)N[C@@H](CCCNC(=N)N)C(=O)N[C@@H](Cc2ccc(O)cc2)C(=O)O)C(C)(C)C)C1=O (stereo partly shown) [Compound 99] was tested, and the IC50 was 784 nM.
